Common to all, as to test: NCI anticancer screen, dose series, 48 h
Assay [1] has as its system OVCAR-4 ovarian.
Assay [2] has as its system HOP-62 NSCLC.
The test system of assay [3] is UO-31 renal.
For assay [4], the system named is A498 renal.
Assay [5] has as its system UACC-257 melanoma.
Assay [6] deals with SK-MEL-5 melanoma.
The subject of assay [7] is K-562 leukemia.
Assay [8] relates to PC-3 prostate.
Assay [9] deals with KM12 colon.
For assay [10], the system named is SNB-75 CNS.

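Exposure lasted 48 hours, with cells grown in 96-well plates and compounds tested at five concentrations. TGI: total growth inhibition.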 Bounds are passed on as bounds.

Regarding `CCOc1ccnc2c(OC)c(C)c3nc4ccccc4nc3c12`, the TGI in assay [1], in [2], in assay [3], in assay [4], in assay [5] and in [6] was more than 100 µM throughout. Also, the TGI in assay [7], in [8], in assay [9] and in assay [10] was more than 100 µM each time.

As for `CC(C)[Si](CC1=CCCCC12C(=O)N(COCC[Si](C)(C)C)c1ccccc12)(C(C)C)C(C)C` (stereo not given), the TGI in [1], in assay [2], in assay [3], in assay [4], in assay [5] and in [6] was more than 100 µM throughout. Besides, the TGI in assay [7], in [8], in assay [9] and in [10] was more than 100 µM throughout.

For the compound `CCOC(=O)C1=CN(Cc2ccccc2)C2ON=C(c3ccc(Cl)cc3)C2C1` (stereo not given), the TGI was more than 77.8 µM in assay [1]; more than 67.7 µM in assay [2]; 52.5 µM in [3]; more than 56.8 µM in assay [4]; more than 66.8 µM in assay [5]; more than 65 µM in [6]. For the same compound, the TGI was more than 100 µM in assay [7], more than 53.5 µM in assay [8], more than 66.5 µM in assay [9] and more than 72.5 µM in assay [10].

On to `COc1ccc(C(CC(=O)c2ccc(O)cc2)C(C(=O)c2ccc(O)cc2)C(c2ccc(OC)cc2)C2C(=O)NC(=S)NC2=O)cc1` (stereo not given), for which the TGI in assay [1] is 63.2 µM; in assay [2] it was 67.1 µM; in [3], 33.8 µM; in [4], more than 100 µM; in assay [5], 41 µM; in [6] it was 42.5 µM. The TGI was more than 100 µM in assay [7], 59.8 µM in [8], 31.9 µM in assay [9] and 87.5 µM in assay [10].

With `COc1ccccc1NC(=O)C(=O)C(C#N)CC(C)(C)C=O` (stereo not given), the TGI in [1], in assay [2], in assay [3], in assay [4], in [5] and in assay [6] was more than 100 µM throughout. Besides, the TGI in [7], in [8], in assay [9] and in assay [10] was more than 100 µM throughout.

As to `COc1cc2oc(=O)cc(C)c2c(OC)c1OC`, the TGI is more than 100 µM in assay [1]; more than 100 µM in assay [2]; more than 100 µM in assay [3]; 96.8 µM in [4]; more than 100 µM in assay [5]; more than 100 µM in assay [6]. The TGI in assay [7], in assay [8], in [9] and in assay [10] was more than 100 µM each time.

For `O=CC1C(=O)Nc2nc3ccccc3n2C1c1ccccc1` (stereo not given), the TGI in assay [1] was found to be 80.3 µM; in [2], 20.2 µM; in [3], 27.4 µM; in [4], 28.8 µM; in assay [5] it was 33.3 µM; in assay [6], 28.7 µM. Also, the TGI turned out to be 35.3 µM in assay [7], 42.4 µM in assay [8], 29.9 µM in assay [9] and 22.3 µM in assay [10].

As to `COc1ccc(-c2cc(-c3ccncc3)nc(N)c2-c2ccc(F)cc2)cc1`, the TGI in assay [1], in assay [2], in [3], in [4], in assay [5] and in assay [6] was more than 100 µM in each case. Besides, the TGI in assay [7], in assay [8], in assay [9] and in assay [10] was more than 100 µM throughout.

For `COc1ccc(/C=C2\NC(=S)N(CN3CCOCC3)C2=O)cc1`, the TGI in assay [1], in assay [2], in [3], in [4], in [5] and in assay [6] was more than 100 µM throughout. Moreover, the TGI in assay [7], in assay [8], in assay [9] and in assay [10] was more than 100 µM in each case.

Turning to `[B]C(=O)NC(CC(C)C)C(=O)NC1c2ccsc2C(=O)C1O` (stereo not given) (tested in a mixture with another compound), the TGI in assay [1], in [2], in assay [3], in [4], in assay [5] and in [6] was more than 100 µM throughout. The TGI in assay [7], in assay [8], in assay [9] and in assay [10] was more than 100 µM each time.

Regarding `CC(=O)Nc1ccc2cc3c(nc2n1)c1cccnc1n3S(=O)(=O)c1ccccc1`, the TGI in [1], in assay [2], in assay [3], in assay [4], in assay [5] and in assay [6] was more than 100 µM throughout. Moreover, the TGI in [7], in assay [8], in assay [9] and in assay [10] was more than 100 µM throughout.

Take `CC(C)N=C(NC#N)NS(=O)(=O)c1cnccc1NC1CCCCCCC1`: the TGI in assay [1], in assay [2], in assay [3], in assay [4], in assay [5] and in [6] was more than 100 µM throughout. The TGI in [7], in assay [8], in assay [9] and in assay [10] was more than 100 µM each time.

Consider `CC(=O)Oc1ccc(C2SCc3nc4ccccc4n32)cc1` (stereo not given), for which the TGI was more than 100 µM in [1]; more than 100 µM in assay [2]; more than 61.5 µM in assay [3]; 73.8 µM in assay [4]; more than 100 µM in assay [5]; more than 100 µM in assay [6]. The TGI in assay [7] is more than 100 µM; in assay [8] it was more than 100 µM; in assay [9], 81.8 µM; in assay [10], 77.2 µM.

(Values after PubChem BioAssay (NCI).)
